Assay results as given in patent publication US20050197350A1, “Novel quinoline, tetrahydroquinazoline, and pyrimidine derivatives and methods of treatment related to the use thereof” (TAISHO PHARMACEUTICAL CO., LTD., priority 2003, published 2005).
Structures can show the parent of a compound that is named as a salt.

The compounds below were run against MCH receptor (Homo sapiens, UniProt Q99705) (assay: High throughput functional screening FLIPR/FDSS6000 (intracellular Ca2+ evoked by MCH)). Conditions: FLIPR/FDSS, antagonist activity vs 50 nM MCH; class by percent of control at 10^−7 M or IC50; table after the classification; read-out: class.
Type: cell-based
Summary of the method: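 For antagonist testing, compound-treated cells (30 min, 37 °C) were stimulated with 50 nM MCH and intracellular Ca2+ followed by Fluo4 fluorescence on FLIPR/FDSS6000. Receptor was a constitutively active, non-endogenous MCH receptor; dye loading 4 μM Fluo4-AM, 1 h, 37 °C.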

IC50 [nM]	SMILES
< 50	CCN(CC(=O)N[C@H]1CC[C@@H](Nc2nccc(N(C)C)n2)CC1)c1ccc(Cl)cc1 [Example 3203, C-[cis-(4-Chloro-phenyl)-ethyl-amino]-N-[4-(4-dimethylamino-pyrimidin-2-ylamino)-cyclohexyl]-acetamide dihydrochloride]
50 to 200	CN(C)c1ccnc(N[C@H]2CC[C@@H](NC(=O)Cc3ccc(F)c(F)c3)CC2)n1 [Example 3204, 2-(3,4-Difluoro-phenyl)-N-[cis-4-(4-dimethylamino-pyrimidin-2-ylamino)-cyclohexyl]-acetamide hydrochloride]
50 to 200	CN(C)c1ccnc(N[C@H]2CC[C@@H](NC(=O)c3cc(F)cc(F)c3)CC2)n1 [Example 3205, N-[cis-4-(4-Dimethylamino-pyrimidin-2-ylamino)-cyclohexyl]-3,5-difluoro-benzamide hydrochloride]
< 50	CN(C)c1ccnc(N[C@H]2CC[C@@H](NC(=O)c3ccc(F)c(Cl)c3)CC2)n1 [Example 3206, 3-Chloro-N-[cis-4-(4-dimethylamino-pyrimidin-2-ylamino)-cyclohexyl]-4-fluoro-benzamide hydrochloride]
< 50	CN(C)c1ccnc(N[C@H]2CC[C@@H](NC(=O)c3ccc(Cl)c(F)c3)CC2)n1 [Example 3207, 4-Chloro-N-[cis-4-(4-dimethylamino-pyrimidin-2-ylamino)-cyclohexyl]-3-fluoro-benzamide hydrochloride]
> 200	CN(C)c1ccnc(N[C@H]2CC[C@@H](NC(=O)c3ccccn3)CC2)n1 [Example 3208, Pyridine-2-carboxylic acid [cis-4-(4-dimethylamino-pyrimidin-2-ylamino)-cyclohexyl]-amide hydrochloride]
> 200	CN(C)c1ccnc(N[C@H]2CC[C@@H](NC(=O)c3cccnc3)CC2)n1 [Example 3209, N-[cis-4-(4-Dimethylamino-pyrimidin-2-ylamino)-cyclohexyl]-nicotinamide dihydrochloride]
> 200	CN(C)c1ccnc(N[C@H]2CC[C@@H](NC(=O)c3ccncc3)CC2)n1 [Example 3210, N-[cis-4-(4-Dimethylamino-pyrimidin-2-ylamino)-cyclohexyl]-isonicotinamide dihydrochloride]
< 50	CN(C)c1ccnc(N[C@H]2CC[C@@H](NC(=O)c3cncc(Br)c3)CC2)n1 [Example 3211, 5-Bromo-N-[cis-4-(4-dimethylamino-pyrimidin-2-ylamino)-cyclohexyl]-nicotinamide hydrochloride]
> 200	CN(C)c1ccnc(N[C@H]2CC[C@@H](NC(=O)c3ccc(C(F)(F)F)nc3)CC2)n1 [Example 3212, N-[cis-4-(4-Dimethylamino-pyrimidin-2-ylamino)-cyclohexyl]-6-trifluoromethyl-nicotinamide hydrochloride]
> 200	CN(C)c1ccnc(N[C@H]2CC[C@@H](NC(=O)c3cc(Cl)ccn3)CC2)n1 [Example 3213, 4-Chloro-pyridine-2-carboxylic acid [cis-4-(4-dimethylamino-pyrimidin-2-ylamino)-cyclohexyl]-amide hydrochloride]
50 to 200	CN(C)c1ccnc(N[C@H]2CC[C@@H](NC(=O)c3ccc(F)cc3)CC2)n1 [Example 3214, N-[cis-4-(4-Dimethylamino-pyrimidin-2-ylamino)-cyclohexyl]-4-fluoro-benzamide hydrochloride]
50 to 200	CN(C)c1ccnc(N[C@H]2CC[C@@H](NC(=O)c3cc(F)cc(Cl)c3)CC2)n1 [Example 3215, 3-Chloro-N-cis-4-(4-dimethylamino-pyrimidin-2-ylamino)-cyclohexyl]-5-fluoro-benzamide hydrochloride]
< 50	CN(C)c1ccnc(N[C@H]2CC[C@@H](NC(=O)c3cc(F)c(F)c(F)c3)CC2)n1 [Example 3216, N-[cis-4-(4-Dimethylamino-pyrimidin-2-ylamino)-cyclohexyl]-3,4,5-trifluoro-benzamide hydrochloride]
< 50	CN(C)c1ccnc(N[C@H]2CC[C@@H](NC(=O)c3cc(C(C)(C)C)c(O)c(C(C)(C)C)c3)CC2)n1 [Example 3217, 3,5-Di-tert-butyl-N-[cis-4-(4-dimethylamino-pyrimidin-2-ylamino)-cyclohexyl]-4-hydroxy-benzamide hydrochloride]
> 200	CN(C)c1ccnc(N[C@H]2CC[C@@H](NC(=O)Nc3cccc(Cl)c3Cl)CC2)n1 [Example 3218, 1-(2,3-Dichloro-phenyl)-3-[cis-4-(4-dimethylamino-pyrimidin-2-ylamino)-cyclohexyl]-urea hydrochloride]
50 to 200	CN(C)c1ccnc(N[C@H]2CC[C@@H](CNC(=O)c3ccc(F)c(F)c3)CC2)n1 [Example 3219, N-[cis-4-(4-Dimethylamino-pyrimidin-2-ylamino)-cyclohexylmethyl]-3,4-difluoro-benzamide hydrochloride]
< 50	CN(C)c1ccnc(N[C@H]2CC[C@@H](CNC(=O)Cc3c(Cl)ccc(Cl)c3Cl)CC2)n1 [Example 3220, N-[cis-4-(4-Dimethylamino-pyrimidin-2-ylamino)-cyclohexylmethyl]-2-(2,3,6-trichloro-phenyl)-acetamide hydrochloride]
< 50	CN(C)c1ccnc(N[C@H]2CC[C@@H](CNC(=O)C3c4ccccc4Oc4ccccc43)CC2)n1 [Example 3221, 9H-Xanthene-9-carboxylic acid [cis-4-(4-dimethylamino-pyrimidin-2-ylamino)-cyclohexylmethyl]-amide hydrochloride]
< 50	CN(C)c1ccnc(N[C@H]2CC[C@@H](CNC(=O)Nc3cccc(Cl)c3Cl)CC2)n1 [Example 3222, 1-(2,3-Dichloro-phenyl)-3-[cis-4-(4-dimethylamino-pyrimidin-2-ylamino)-cyclohexylmethyl]-urea hydrochloride]
> 200	CNc1ccnc(N[C@H]2CC[C@@H](NC(=O)c3ccc(F)c(F)c3)CC2)n1 [Example 3223, 3,4-Difluoro-N-[cis-4-(4-methylamino-pyrimidin-2-ylamino)-cyclohexyl]-benzamide-hydrochloride]
50 to 200	CNc1ccnc(N[C@H]2CC[C@@H](NC(=O)c3ccc(F)c(Cl)c3)CC2)n1 [Example 3224, 3-Chloro-4-fluoro-N-[cis-4-(4-methylamino-pyrimidin-2-ylamino)-cyclohexyl]-benzamide hydrochloride]
> 200	CCNc1ccnc(N[C@H]2CC[C@@H](NC(=O)c3ccc(F)c(F)c3)CC2)n1 [Example 3225, N-[cis-4-(4-Ethylamino-pyrimidin-2-ylamino)-cyclohexyl]-3,4-difluoro-benzamide hydrochloride]
> 200	CCN(C)c1ccnc(N[C@H]2CC[C@@H](NC(=O)c3ccc(F)c(F)c3)CC2)n1 [Example 3226, N-{cis-4-[4-(Ethyl-methyl-amino)-pyrimidin-2-ylamino]-cyclohexyl}-3,4-difluoro-benzamide hydrochloride]
> 200	CN(CCO)c1ccnc(N[C@H]2CC[C@@H](NC(=O)c3ccc(F)c(F)c3)CC2)n1 [Example 3227, 3,4-Difluoro-N-(cis-4-{4-[(2-hydroxy-ethyl)-methyl-amino]-pyrimidin-2-ylamino}-cyclohexyl)-benzamide hydrochloride]
